Assay results reported in US10280170B2, “Substituted 4,5,6,7-tetrahydro-pyrazolo[1,5-a]pyrazine derivatives and 5,6,7,8-tetrahydro-4H-pyrazolo[1,5-a][1,4]diazepine derivatives as Ros1 inhibitors” (Janssen Pharmaceutica NV, priority 2014, dated 2019).
Read-outs that look alike come from different tables or passages of the source.

Legend:
[1] = system: Ba/F3 cells containing Ros1 wild-type protein + IL-3; assay: Ba/F3-Ros1 cell proliferation counter-screen, wild-type protein in the presence of 10 ng/ml murine IL-3; format: cell-based; conditions: Mus musculus, BaF3, 24 h, read-out: BaF3-ROS1 + IL3 pIC50 (converted)
Procedure: (§1) This assay was carried out with Ba/F3 cells containing three different versions of Ros1: the wild-type protein, protein with a mutation at the gatekeeper residue (L2026M), and protein with a mutation identified in a tumor from a patient that became resistant to crizotinib (Xalkori®) treatment (G2032R). Compounds were solubilized in 100% DMSO (dimethyl sulfoxide) and sprayed into polystyrene, tissue culture treated 384-well plates. A 50 μl volume of cell culture medium (phenol red free RPMI-1640, 10% FBS (fetal bovine serum), 2 mM L-Glutamine) containing 20000 Ba/F3-Ros1 cells was added to each well and the plates were placed in an incubator at 37° C. and 5% CO2. After 24 hours, 10 μl of Alamar Blue solution (0.5 mM K3Fe(CN)6, 0.5 mM K4Fe(CN)6, 0.15 mM Resazurin and 100 mM Phosphate Buffer) was added to the wells, incubated for 4 hours at 37° C. and 5% CO2 before RFU's (Relative Fluorescence Units) (ex. 540 nm., em. 590 nm.) were measured in a fluorescence plate reader.
As a counter-screen the same experiment was performed for the wild-type protein in the presence of 10 ng/ml murine IL-3.

[2] = target: Ba/F3 cells containing Ros1 with a mutation at the gatekeeper residue (L2026M) (Homo sapiens, UniProt P08922, L2026M, cells depend on it, form not given); assay: Ba/F3-Ros1 cell proliferation assay, L2026M gatekeeper mutant; format: cell-based, murine; conditions: without IL-3
Chain of Ba/F3 cells containing Ros1 with a mutation at the gatekeeper residue (L2026M) (P08922 whole entry L2026M, form open): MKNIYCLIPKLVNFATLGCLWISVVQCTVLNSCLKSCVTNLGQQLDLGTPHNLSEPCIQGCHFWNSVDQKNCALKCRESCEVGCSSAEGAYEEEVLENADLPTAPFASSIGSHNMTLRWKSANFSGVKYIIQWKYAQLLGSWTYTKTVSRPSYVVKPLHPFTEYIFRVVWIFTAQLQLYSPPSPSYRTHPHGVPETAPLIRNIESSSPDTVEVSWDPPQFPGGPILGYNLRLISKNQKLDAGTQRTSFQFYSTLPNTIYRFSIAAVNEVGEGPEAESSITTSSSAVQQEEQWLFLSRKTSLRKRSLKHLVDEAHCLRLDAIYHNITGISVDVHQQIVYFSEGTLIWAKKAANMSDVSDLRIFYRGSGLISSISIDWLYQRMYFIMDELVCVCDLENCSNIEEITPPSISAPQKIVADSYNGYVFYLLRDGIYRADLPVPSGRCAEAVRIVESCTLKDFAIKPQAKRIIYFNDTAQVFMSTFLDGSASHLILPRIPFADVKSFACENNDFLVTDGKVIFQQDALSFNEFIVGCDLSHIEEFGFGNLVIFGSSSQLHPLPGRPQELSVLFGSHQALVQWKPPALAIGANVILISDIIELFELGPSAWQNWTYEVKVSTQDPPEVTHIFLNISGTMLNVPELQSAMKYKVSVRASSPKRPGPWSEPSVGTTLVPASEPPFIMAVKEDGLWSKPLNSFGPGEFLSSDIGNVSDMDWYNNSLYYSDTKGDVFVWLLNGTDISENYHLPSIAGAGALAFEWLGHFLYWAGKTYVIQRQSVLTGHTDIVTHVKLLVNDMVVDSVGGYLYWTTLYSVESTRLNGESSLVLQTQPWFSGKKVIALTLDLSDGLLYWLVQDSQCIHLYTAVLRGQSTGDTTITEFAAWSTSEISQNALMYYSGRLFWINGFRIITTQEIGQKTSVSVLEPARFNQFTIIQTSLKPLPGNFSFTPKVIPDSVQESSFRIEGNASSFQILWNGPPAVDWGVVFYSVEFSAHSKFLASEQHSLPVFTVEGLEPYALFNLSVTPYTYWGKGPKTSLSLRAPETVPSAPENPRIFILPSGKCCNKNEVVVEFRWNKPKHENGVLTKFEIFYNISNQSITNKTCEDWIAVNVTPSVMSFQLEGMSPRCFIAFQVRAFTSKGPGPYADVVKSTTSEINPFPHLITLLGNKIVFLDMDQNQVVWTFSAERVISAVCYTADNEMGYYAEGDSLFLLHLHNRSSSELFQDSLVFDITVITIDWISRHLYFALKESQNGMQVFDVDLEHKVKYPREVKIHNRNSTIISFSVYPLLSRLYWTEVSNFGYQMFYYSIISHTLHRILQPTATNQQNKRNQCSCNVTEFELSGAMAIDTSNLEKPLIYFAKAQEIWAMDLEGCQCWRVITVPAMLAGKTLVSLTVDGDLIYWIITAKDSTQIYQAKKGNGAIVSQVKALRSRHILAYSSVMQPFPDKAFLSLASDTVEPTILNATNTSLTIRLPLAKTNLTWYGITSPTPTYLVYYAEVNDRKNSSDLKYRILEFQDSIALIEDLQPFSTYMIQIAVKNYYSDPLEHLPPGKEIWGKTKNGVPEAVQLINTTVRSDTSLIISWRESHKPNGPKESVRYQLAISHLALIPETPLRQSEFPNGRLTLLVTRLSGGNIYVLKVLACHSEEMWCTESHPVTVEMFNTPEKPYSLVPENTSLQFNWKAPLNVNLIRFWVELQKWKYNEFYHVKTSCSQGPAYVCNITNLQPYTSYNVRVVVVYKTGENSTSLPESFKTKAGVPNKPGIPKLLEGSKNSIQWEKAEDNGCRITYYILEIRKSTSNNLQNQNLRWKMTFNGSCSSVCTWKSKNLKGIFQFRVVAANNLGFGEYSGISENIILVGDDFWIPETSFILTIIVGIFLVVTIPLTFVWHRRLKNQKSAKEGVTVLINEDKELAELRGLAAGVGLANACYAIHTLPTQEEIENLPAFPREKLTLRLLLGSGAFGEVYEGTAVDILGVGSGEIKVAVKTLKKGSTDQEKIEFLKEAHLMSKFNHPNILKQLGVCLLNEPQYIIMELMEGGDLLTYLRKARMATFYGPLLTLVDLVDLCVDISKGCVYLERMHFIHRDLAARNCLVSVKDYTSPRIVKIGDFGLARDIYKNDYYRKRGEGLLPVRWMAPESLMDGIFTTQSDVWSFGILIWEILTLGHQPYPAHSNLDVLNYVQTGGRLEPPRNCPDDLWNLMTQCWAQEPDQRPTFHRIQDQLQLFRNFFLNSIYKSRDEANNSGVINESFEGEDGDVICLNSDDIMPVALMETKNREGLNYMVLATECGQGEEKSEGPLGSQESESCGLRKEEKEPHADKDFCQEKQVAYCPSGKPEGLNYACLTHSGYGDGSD
Procedure: (§2) Ba/F3-Ros1 Cell Proliferation Assay
as §1

[3] = target: T1, Ba/F3 cells containing Ros1 wild-type protein (Homo sapiens, UniProt P08922, cells depend on it, form not given); assay: Ba/F3-Ros1 cell proliferation assay, wild-type Ros1; format: cell-based, murine; conditions: without IL-3
T1 construct: The background only speaks of 'a number of different unrelated proteins' and names SLC34A2-ROS1 for HCC78 cells
T1 sequence (P08922 whole entry, stated change not applied): as the sequence (P08922 whole entry L2026M, form open) above, with M2026L counted along it
Procedure: as §2, §1

[4] = system: HCC78 non-small cell lung cancer cells; assay: HCC78 cell proliferation assay; format: cell-based; conditions: for EC50: Homo sapiens, HCC78, 96 h, read-out: HCC-78 PROL pEC50 (converted)
Procedure: HCC78 Cell Proliferation Assay
Approximately 1000 HCC78 non-small cell lung cancer cells in 180 μl of cell culture medium (RPMI-1640, 10% FBS, 2 mM L-Glutamine, 10 mM Hepes, 1 mM sodium pyruvate, 4.5 g/L glucose, 1.5 g/L sodium bicarbonate, 25 μg/ml Gentamycin) were seeded in each well of a 96-well polystyrene, tissue-culture treated plate and incubated at 37° C. and 5% CO2. After 24 hours, compounds were diluted in cell culture medium from which 20 μl was added to the wells containing cells and incubated for 4 days at 37° C. and 5% CO2. A 5 mg/ml solution of the tetrazolium dye MTT was prepared in PBS (phosphate-buffered saline) and 25 μl was added to each well. After 2 hours the medium was removed and replaced by 125 μL of 4/1 DMSO/glycine buffer (0.1M glycine, 0.1M NaCl, pH 10.5) before absorbance was determined at 538 nm.

Ros1 enzyme = target: T2, Ros1 enzyme (Homo sapiens, UniProt P08922); assay: Ros1 enzymatic assay; format: biochemical; conditions: Ros1 enzymatic assay; read-out: ROS1 pIC50 (converted)
T2 construct: 0.5 μg/ml Ros1 enzyme
T2 sequence (P08922 28-2347): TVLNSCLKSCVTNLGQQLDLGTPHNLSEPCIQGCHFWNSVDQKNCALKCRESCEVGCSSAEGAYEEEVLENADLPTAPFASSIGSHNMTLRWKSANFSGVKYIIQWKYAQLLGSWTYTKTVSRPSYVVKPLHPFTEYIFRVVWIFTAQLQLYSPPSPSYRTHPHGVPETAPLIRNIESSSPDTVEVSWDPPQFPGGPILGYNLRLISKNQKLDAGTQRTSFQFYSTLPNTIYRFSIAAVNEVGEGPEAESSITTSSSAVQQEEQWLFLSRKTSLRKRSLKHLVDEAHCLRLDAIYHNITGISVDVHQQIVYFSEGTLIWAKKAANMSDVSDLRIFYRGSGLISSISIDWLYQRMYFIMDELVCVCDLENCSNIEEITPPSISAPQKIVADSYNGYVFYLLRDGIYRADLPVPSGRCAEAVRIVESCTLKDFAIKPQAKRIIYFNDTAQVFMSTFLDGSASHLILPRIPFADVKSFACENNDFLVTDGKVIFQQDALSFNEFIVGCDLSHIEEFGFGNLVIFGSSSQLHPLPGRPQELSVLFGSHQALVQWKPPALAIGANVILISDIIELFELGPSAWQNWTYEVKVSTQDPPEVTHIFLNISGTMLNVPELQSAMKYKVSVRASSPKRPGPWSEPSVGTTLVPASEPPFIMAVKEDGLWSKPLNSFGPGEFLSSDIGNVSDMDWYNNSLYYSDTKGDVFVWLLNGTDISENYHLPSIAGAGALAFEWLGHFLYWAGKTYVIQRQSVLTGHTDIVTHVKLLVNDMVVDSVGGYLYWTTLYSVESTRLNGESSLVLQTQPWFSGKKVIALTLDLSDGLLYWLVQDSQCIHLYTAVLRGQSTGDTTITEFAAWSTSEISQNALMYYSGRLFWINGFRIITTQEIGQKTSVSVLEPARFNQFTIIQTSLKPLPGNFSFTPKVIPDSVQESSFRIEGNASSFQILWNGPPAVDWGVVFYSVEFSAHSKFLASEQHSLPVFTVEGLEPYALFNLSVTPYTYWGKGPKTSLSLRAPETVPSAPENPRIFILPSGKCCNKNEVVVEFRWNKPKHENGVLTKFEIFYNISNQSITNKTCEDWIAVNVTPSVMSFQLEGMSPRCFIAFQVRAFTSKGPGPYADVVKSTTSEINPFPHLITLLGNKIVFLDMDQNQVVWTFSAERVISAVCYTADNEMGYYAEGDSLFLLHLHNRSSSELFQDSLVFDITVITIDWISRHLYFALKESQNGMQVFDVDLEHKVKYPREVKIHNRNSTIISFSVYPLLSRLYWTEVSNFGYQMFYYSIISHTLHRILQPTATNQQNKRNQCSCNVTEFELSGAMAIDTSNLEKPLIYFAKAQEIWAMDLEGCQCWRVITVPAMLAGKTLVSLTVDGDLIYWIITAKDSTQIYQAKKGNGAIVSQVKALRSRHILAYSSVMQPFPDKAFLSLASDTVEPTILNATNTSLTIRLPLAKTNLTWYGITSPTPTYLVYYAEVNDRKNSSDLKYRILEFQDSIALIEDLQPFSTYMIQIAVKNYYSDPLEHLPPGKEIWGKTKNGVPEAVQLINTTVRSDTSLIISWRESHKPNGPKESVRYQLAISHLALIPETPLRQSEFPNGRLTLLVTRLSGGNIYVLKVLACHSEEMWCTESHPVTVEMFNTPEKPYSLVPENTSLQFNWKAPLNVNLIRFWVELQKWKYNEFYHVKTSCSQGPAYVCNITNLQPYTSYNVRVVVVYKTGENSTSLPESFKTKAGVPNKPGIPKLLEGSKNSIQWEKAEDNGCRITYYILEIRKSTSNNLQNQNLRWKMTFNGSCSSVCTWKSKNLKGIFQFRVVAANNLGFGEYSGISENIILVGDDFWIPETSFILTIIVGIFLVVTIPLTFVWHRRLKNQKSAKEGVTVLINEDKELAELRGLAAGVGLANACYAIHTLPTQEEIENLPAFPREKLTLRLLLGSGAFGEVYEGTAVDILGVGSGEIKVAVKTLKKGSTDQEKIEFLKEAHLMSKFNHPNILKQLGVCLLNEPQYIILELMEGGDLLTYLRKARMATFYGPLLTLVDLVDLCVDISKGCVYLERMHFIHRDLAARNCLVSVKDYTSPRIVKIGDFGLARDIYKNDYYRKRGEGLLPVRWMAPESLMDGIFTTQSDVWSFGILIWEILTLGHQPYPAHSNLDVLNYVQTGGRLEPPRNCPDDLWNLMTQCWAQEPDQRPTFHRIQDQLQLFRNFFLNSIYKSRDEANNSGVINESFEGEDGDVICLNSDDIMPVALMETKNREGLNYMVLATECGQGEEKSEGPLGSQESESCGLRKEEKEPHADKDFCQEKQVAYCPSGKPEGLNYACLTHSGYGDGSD
Procedure: Compounds were spotted onto white 384-well Proxiplate plus plates (Perkin Elmer) to which 5 μl of enzyme mix (0.5 μg/ml Ros1 enzyme, 50 mM Tris-HCl pH7.5, 1 mM EGTA, 10 mM MgCl2, 0.01% Tween-20) and 5 μl of substrate mix (6 μg/ml IRS-Tide [American Peptide Company], 20 μM ATP, 13.33 μCi/ml ATP (adenosine 5′-triphosphate) P^33, 50 mM Tris-HCl pH7.5, 1 mM EGTA (ethylene glycol-bis(2-aminoethylether)-N,N,N′,N′-tetraacetic acid), 10 mM MgCl2, 0.01% Tween-20) were added. After incubation for 120 minutes at room temperature, 10 μl of stop reaction buffer (5 mM EDTA, 50 μM ATP, 0.1% BSA (bovine serum albumin), 0.1% Triton X-100, 50 mM Tris-HCl pH7.5, 1 mM EGTA, 10 mM MgCl2, 0.01% Tween-20) containing 2 mg/ml streptavidin coupled polystyrene imaging beads (Amersham Biosciences) was added and incubated for 15 minutes at room temperature. Plates were centrifuged for 3 minutes at 1500 rpm and signals detected in a LEADseeker imaging system (GE).

[5] = counter-screen, wild-type, 10 ng/ml murine IL-3

Row | Structure (SMILES) | CC50 [1, 5] [nM] | Ba/F3 Ros1 L2026M (-IL-3) pIC50 [2] | BaF3-ROS1-IL3 pIC50 [3] | HCC-78 PROL pEC50 ([4]; HCC78 cells, 4 days, MTT) | IC50 (Ros1 enzyme) [nM] | CC50 [1] [nM] | EC50 [4] [nM] | EC50 ([4]; HCC78 cells, 4 days, MTT) [nM] | melting point [°C]
1 | CC(C)c1ccc(COc2ccc(-c3c(-c4ccncc4)nn4c3C(=O)N(C(C)CO)CC4)cc2)cc1 (single isomer, unassigned) [Compound 39] | > 10000 | 7.0 | 7.3 | 6.8 | 79.4 |  |  |  | 
2 | CC(C)c1ccc(COc2cc(F)c(-c3c(-c4ccncc4)nn4c3C(=O)NCC4)cc2F)cc1 [Compound 14] |  | 8.2 | 7.8 |  | 6.31 | > 10000 | < 31.6 |  | 
3 | CC(C)c1ccc(COc2c(F)cc(-c3c(-c4ccncc4)nn4c3C(=O)NCC4)cc2F)cc1 [Compound 15] |  | 7.5 | 7.5 |  | 39.8 | > 10000 | 50.1 |  | 
4 | Cc1cc(-c2c(-c3ccncc3)nn3c2C(=O)N(CCO)CC3)ccc1OCc1ccc(C(C)C)cc1 [Compound 31] |  | 5.9 | 6.3 |  | 1580 | > 10000 | 6310 |  | 
5 | CC(C)c1ccc(COc2ccc(-c3c(-c4ccncc4)nn4c3C(=O)N(CC3CNC(=O)O3)CC4)cc2)cc1 (centres unmarked) [Compound 56] |  | 7.0 | 7.5 |  | 39.8 | > 10000 | 126 |  | 
6 | CC(C)c1ccc(COc2ccc(-c3c(-c4ccncc4)nn4c3C(=O)N(CCCN)CC4)cc2)cc1 [Compound 58] | 6310 | 7.0 | 7.3 |  | 20 |  |  | 1000 | 
7 | CC(C)c1ccc(COc2ccc(-c3c(-c4ccncc4)nn4c3C(=O)N(CCN)CC4)cc2)cc1 [Compound 59] | 5010 | ~6.1 | 6.4 |  | 63.1 |  |  | 501 | 
8 | CNCCN1CCn2nc(-c3ccncc3)c(-c3ccc(OCc4ccc(C(C)C)cc4)cc3)c2C1=O [Compound 60] | 3980 | 6.2 | 6.6 |  | 63.1 |  |  | 631 | 
9 | CC(C)c1ccc(COc2ccc(-c3c(-c4ccncc4)nn4c3C(=O)N(CCN(C)C)CC4)cc2)cc1 [Compound 61] |  | 5.9 | 6.3 |  |  | > 10000 | 631 |  | 
10 | CC(C)c1ccc(COc2ccc(-c3c(-c4ccncc4)nn4c3C(=O)N(CCNCC(F)(F)F)CC4)cc2)cc1 [Compound 62] |  | 6.6 | 7.0 |  | 200 | > 10000 | 501 |  | 
11 | CC(=O)OC(C)CN1CCn2nc(-c3ccncc3)c(-c3ccc(OCc4ccc(C(C)C)cc4)cc3)c2C1=O (centres unmarked) [Compound 69] | > 10000 | <5 | 7.4 |  | 63.1 |  |  | 200 | 
12 | CC(C)c1ccc(CC(=O)N2CC=C(c3c(-c4ccncc4)nn4c3C(=O)NCC4)CC2)cc1 [Compound 77] |  | 6.3 | 6.3 |  | 316 | > 10000 | 2000 |  | 
13 | CC(C)c1ccc(COc2ccc(-c3c(-c4ccncc4)nn4c3C(=O)NCC4)cc2)cc1CN [Compound 86] | > 10000 | 6.9 | 7.2 |  | 10 |  |  | 501 | 
14 | CC(C)c1ccc(COc2ccc(-c3c(-c4ccncc4)nn4c3C(=O)NCC4)cc2)cc1OCCO [Compound 89] |  | 7.1 | 7.6 |  | 31.6 | > 10000 | 200 |  | 
15 | CC(C)c1ccc(COc2ccc(-c3c(-c4ccncc4)nn4c3C(=O)NCC4)cc2)cc1CC(O)CO (centres unmarked) [Compound 91] |  | 6.6 | 7.3 |  | 31.6 | > 10000 | 63.1 |  | 
16 | CC(C)c1ccc(COc2ccc(-c3c(-c4ccncc4)nn4c3C(=O)N(CCO)CC4)cc2)c(F)c1F [Compound 100] |  | 6.3 | 6.9 |  | 200 | > 10000 |  |  | 172
17 | CC(C)c1ccc(COc2ccc(-c3c(-c4ccncc4)nn4c3C(=O)N(CC(O)CO)CC4)cc2)c(F)c1F (centres unmarked) [Compound 101] | > 10000 | 6.4 | 6.7 |  | 398 |  |  |  | 192
18 | CC(CO)c1ccc(COc2ccc(-c3c(-c4ccncc4)nn4c3C(=O)N(CCO)CC4)cc2)cc1 (centres unmarked) [Compound 128] |  | 6.2 | 6.6 |  | 1260 | > 10000 | 1000 |  | 
19 | CC(C)c1ccc(C(C)Oc2ccc(-c3c(-c4ccncc4)nn4c3C(=O)NCC4)cc2)cc1 (centres unmarked) [Compound 143] |  | 6.0 | 6.4 |  | 1000 | 5010 |  |  | 217
20 | CC(C)c1ccc(C(C)Oc2ccc(-c3c(-c4ccncc4)nn4c3C(=O)N(CCO)CC4)cc2)cc1 (centres unmarked) [Compound 145] |  | 5.1 | 5.8 | <5.5 | 3160 |  |  |  | 
21 | O=C1NCCn2nc(-c3ccncn3)c(-c3ccc(OCc4ccc(C5CC5)nc4)cc3)c21 [Compound 168] |  | 6.2 | 6.5 |  | 398 | > 10000 |  |  | 254
22 | O=C1c2c(-c3ccc(OCc4ccc(C5CC5)nc4)cc3)c(-c3ccncn3)nn2CCN1CCO [Compound 169] |  | 5.6 | 6.2 |  | 1000 | > 10000 |  |  | 143
23 | CC(C)c1ccc(COc2ccc(-c3c(-c4ccncc4)nn4c3C(=O)N(CCO)CC4)c(F)c2)cc1CCO [Compound 205] |  | 7.5 | 7.8 |  | 7.94 | > 10000 |  |  | 151
24 | CC(C)c1ccc(COc2ccc(-c3c(-c4ccncc4)nn4c3C(=O)N(C)CC4)cn2)cc1 [Compound 211] | > 10000 | 7.3 | 7.3 |  | 31.6 |  |  |  | 57
25 | CC(C)c1ccc(COc2ccc(-c3c(-c4ccncc4)nn4c3C(=O)N(CCS(C)(=O)=O)CC4)cn2)cc1 [Compound 213] | > 10000 | 6.4 | 7.0 |  | 100 |  |  |  | 200
26 | CC(C)c1ccc(C2Oc3ccc(-c4c(-c5ccncc5)nn5c4C(=O)NCC5)cc3NC2=O)cc1 (centres unmarked) [Compound 231] | > 10000 | 5.7 | 6.4 |  | 794 |  |  |  | 291
